Data on 30 compounds can be found in US11345712B2, “Protein-targeting compounds and pharmaceutical compositions thereof, and their therapeutic applications” (BioTheryX, Inc., priority 2019, dated 2022).

For one data set, the system named is MOLM-13 cells. The experiment in a line: MOLM-13 cell viability assay (CellTiter-Glo). The conditions noted are these: 3 days, concentration of 1 μM. It counts as cell-based. An outline of the steps:
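MOLM-13 AML cells in RPMI 1640 with 10% FBS, seeded at 2,500 cells/well and exposed to compound or DMSO for 3 days at 37° C, 5% CO2. Viability read as CellTiter-Glo luminescence after 10 min shaking.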
In general terms: ATP-based viability assays read luminescence as a measure of living cells.
Consider `CC(C)(C)c1ccc(C(=O)C(=O)NCc2cc3c(s2)C(=O)N(C2CCC(=O)NC2=O)C3)cc1` (stereo not drawn) [Compound I-35, 2-(4-(tert-butyl)phenyl)-N-((5-(2,6-dioxopiperidin-3-yl)-6-oxo-5,6-dihydro-4H-thieno[2,3-c]pyrrol-2-yl)methyl)-2-oxoacetamide], for which the “Antiproliferative Activity (inhibition, MOLM-13 cell viability)” value is “D (a value less than 25% inhibition)”.

The data set is the same for the next values; noted with them: Homo sapiens, MOLM-13, 72 h, 3 days, concentration of 1 μM, read-out: Antiproliferative Activity (inhibition, MOLM-13 cell viability).
`Cc1ccc(NC(=O)NCc2cc3c(s2)C(=O)N(C2(C)CCC(=O)NC2=O)C3)cc1Cl` (stereo not drawn) [II-73, 1-(3-chloro-4-methylphenyl)-3-((5-(3-methyl-2,6-dioxopiperidin-3-yl)-6-oxo-5,6-dihydro-4H-thieno[2,3-c]pyrrol-2-yl)methyl)urea]: the cytotoxicity at 1 µM is under 25%. For the compound `Cc1cc(C(=O)C(=O)NCc2ccc3c(c2)CN(C2CCC(=O)NC2=O)C3=O)ccc1C(C)(C)C` (stereo not drawn) [Compound I-55, 2-(3-methyl-4-(tert-butyl)phenyl)-N-((2-(2,6-dioxopiperidin-3-yl)-1-oxoisoindolin-5-yl)methyl)-2-oxoacetamide], the cytotoxicity at 1 µM was over 80%. On to `Cc1ccc(CC(=O)NCc2scc3c2CN(C2CCC(=O)NC2=O)C3=O)cc1N(C)C` (stereo not drawn) [II-68, 2-(3-(dimethylamino)-4-methylphenyl)-N-((5-(2,6-dioxopiperidin-3-yl)-4-oxo-5,6-dihydro-4H-thieno[3,4-c]pyrrol-1-yl)methyl)acetamide], for which the cytotoxicity at 1 µM was 25 to 50%. Same read-out and setting: the same measure for `CC(C)(C)c1ccc(CS(=O)(=O)NCc2scc3c2CN(C2CCC(=O)NC2=O)C3=O)cc1` (stereo not drawn) [II-128, 1-(4-(tert-butyl)phenyl)-N-((5-(2,6-dioxopiperidin-3-yl)-4-oxo-5,6-dihydro-4H-thieno[3,4-c]pyrrol-1-yl)methyl)methanesulfonamide]: over 80%. Regarding `Cc1ccc(C(=O)C(=O)NCc2scc3c2CN(C2CCC(=O)NC2=O)C3=O)cc1` (stereo not drawn) [Compound I-17, 2-(4-methylphenyl)-N-((5-(2,6-dioxopiperidin-3-yl)-4-oxo-5,6-dihydro-4H-thieno[3,4-c]pyrrol-1-yl)methyl)-2-oxoacetamide], the cytotoxicity at 1 µM was under 25%.

In the case of `CCN(CC)c1cccc(NC(=O)NCc2cc3c(s2)C(=O)N(C2CCC(=O)NC2=O)C3)c1` (stereo not drawn) [II-71, 1-(3-(diethylamino)phenyl)-3-((5-(2,6-dioxopiperidin-3-yl)-6-oxo-5,6-dihydro-4H-thieno[2,3-c]pyrrol-2-yl)methyl)urea], the cytotoxicity at 1 µM is over 80%. The same measure, in the same setting: the same measure for `Cc1ccc(CNC(=O)NCCc2scc3c2CN(C2CCC(=O)NC2=O)C3=O)cc1Cl` (stereo not drawn) [II-32, 1-(3-chloro-4-methylbenzyl)-3-(2-(5-(2,6-dioxopiperidin-3-yl)-4-oxo-5,6-dihydro-4H-thieno[3,4-c]pyrrol-1-yl)ethyl)urea]: over 80%. On the same count and under the same terms, the same measure for `CN(C)c1cc(NC(=O)NCc2cc3c(s2)C(=O)N(C2CCC(=O)NC2=O)C3)ccc1F` (stereo not drawn) [II-45, 1-(3-(dimethylamino)-4-fluorophenyl)-3-((5-(2,6-dioxopiperidin-3-yl)-6-oxo-5,6-dihydro-4H-thieno[2,3-c]pyrrol-2-yl)methyl)urea]: over 80%; for `CCN(CC)c1cc(NC(=O)NCc2cc3c(s2)C(=O)N(C2CCC(=O)NC2=O)C3)ccc1F` (stereo not drawn) [II-97, 1-(3-(diethylamino)-4-fluorophenyl)-3-((5-(2,6-dioxopiperidin-3-yl)-6-oxo-5,6-dihydro-4H-thieno[2,3-c]pyrrol-2-yl)methyl)urea]: over 80%. The same measure, in the same setting: the result for `CC(C)(CO)c1ccc(C(=O)C(=O)NCc2scc3c2CN(C2CCC(=O)NC2=O)C3=O)cc1` (stereo not drawn) [Compound I-43, N-((5-(2,6-dioxopiperidin-3-yl)-4-oxo-5,6-dihydro-4H-thieno[3,4-c]pyrrol-1-yl)methyl)-2-(4-(1-hydroxy-2-methylpropan-2-yl)phenyl)-2-oxoacetamide] reads under 25%; that for `O=C1CCC(N2Cc3c(CNC(=O)C(=O)c4ccc(C5CCNCC5)cc4)cccc3C2=O)C(=O)N1` (stereo not drawn) [Compound I-66, N-((2-(2,6-dioxopiperidin-3-yl)-1-oxoisoindolin-4-yl)methyl)-2-oxo-2-(4-(piperidin-4-yl)phenyl)acetamide], under 25%; that for `CC(C)(C)c1cccc(C(=O)C(=O)NCc2cccc3c2CN(C2CCC(=O)NC2=O)C3=O)c1` (stereo not drawn) [Compound I-46, 2-(3-(tert-butyl)phenyl)-N-((2-(2,6-dioxopiperidin-3-yl)-1-oxoisoindolin-4-yl)methyl)-2-oxoacetamide], 25 to 50%.

For `O=C(/C=C/c1ccc(C2(C(F)(F)F)CC2)cc1)NCc1ccc2c(c1)CN(C1CCC(=O)NC1=O)C2=O` (stereo not drawn) [II-149, (E)-N-((2-(2,6-dioxopiperidin-3-yl)-1-oxoisoindolin-5-yl)methyl)-3-(4-(1-(trifluoromethyl)cyclopropyl)phenyl)acrylamide], the cytotoxicity at 1 µM was over 80%. Still for that read-out and setting: the same measure for `O=C1CCC(N2Cc3c(csc3CNC(=O)C(=O)c3ccc(O)cc3)C2=O)C(=O)N1` (stereo not drawn) [Compound I-16, 2-(4-hydroxyphenyl)-N-((5-(2,6-dioxopiperidin-3-yl)-4-oxo-5,6-dihydro-4H-thieno[3,4-c]pyrrol-1-yl)methyl)-2-oxoacetamide]: under 25%; for `COc1ccc(C(=O)C(=O)NCc2ccc3c(c2)CN(C2CCC(=O)NC2=O)C3=O)cc1` (stereo not drawn) [Compound I-89, N-((2-(2,6-dioxopiperidin-3-yl)-1-oxoisoindolin-5-yl)methyl)-2-(4-methoxyphenyl)-2-oxoacetamide]: over 80%. Same read-out and setting: the same measure for `O=C1CCC(N2Cc3cc(CNC(=O)C(=O)c4ccc(F)c(F)c4)ccc3C2=O)C(=O)N1` (stereo not drawn) [Compound I-93, 2-(3,4-difluorophenyl)-N-((2-(2,6-dioxopiperidin-3-yl)-1-oxoisoindolin-5-yl)methyl)-2-oxoacetamide]: over 80%; for `CC(C)(C)c1ccc(CC(=O)NCc2scc3c2CN(C2CCC(=O)NC2=O)C3=O)cc1` (stereo not drawn) [II-62, 2-(4-(tert-butyl)phenyl)-N-((5-(2,6-dioxopiperidin-3-yl)-4-oxo-5,6-dihydro-4H-thieno[3,4-c]pyrrol-1-yl)methyl)acetamide]: 25 to 50%; for `CN(C)Cc1ccc(C(=O)C(=O)NCc2scc3c2CN(C2CCC(=O)NC2=O)C3=O)cc1` (stereo not drawn) [Compound I-25, 2-(4-((dimethylamino)methyl)phenyl)-N-((5-(2,6-dioxopiperidin-3-yl)-4-oxo-5,6-dihydro-4H-thieno[3,4-c]pyrrol-1-yl)methyl)-2-oxoacetamide]: under 25%.

With `O=C1CCC(N2Cc3c(csc3CNC(=O)C(=O)c3ccc(-c4ccccc4)cc3)C2=O)C(=O)N1` (stereo not drawn) [Compound I-21, 2-([1,1′-biphenyl]-4-yl)-N-((5-(2,6-dioxopiperidin-3-yl)-4-oxo-5,6-dihydro-4H-thieno[3,4-c]pyrrol-1-yl)methyl)-2-oxoacetamide], the cytotoxicity at 1 µM lay within 25 to 50%. On the same count and under the same terms, the result for `O=C1CCC(N2Cc3c(csc3CNC(=O)C(=O)c3ccc(F)cc3)C2=O)C(=O)N1` (stereo not drawn) [Compound I-22, 2-(4-fluorophenyl)-N-((5-(2,6-dioxopiperidin-3-yl)-4-oxo-5,6-dihydro-4H-thieno[3,4-c]pyrrol-1-yl)methyl)-2-oxoacetamide] reads under 25%. On the same count and under the same terms, the result for `CC(C)(C)C1CCC(C(=O)C(=O)NCc2cccc3c2CN(C2CCC(=O)NC2=O)C3=O)CC1` (stereo not drawn) [Compound I-67, 2-(4-(tert-butyl)cyclohexyl)-N-((2-(2,6-dioxopiperidin-3-yl)-1-oxoisoindolin-4-yl)methyl)-2-oxoacetamide] reads 25 to 50%.

On to `CC(C)c1ccc(C(=O)C(=O)NCc2ccc3c(c2)CN(C2CCC(=O)NC2=O)C3=O)s1` (stereo not drawn) [Compound I-37, N-((2-(2,6-dioxopiperidin-3-yl)-1-oxoisoindolin-5-yl)methyl)-2-(5-isopropylthiophen-2-yl)-2-oxoacetamide], for which the cytotoxicity at 1 µM was over 80%.

Take `Cc1ccc(NC(=O)NCc2cc3c(s2)C(=O)N(C2CCC(=O)NC2=O)C3)cc1O` (stereo not drawn) [II-46, 1-((5-(2,6-dioxopiperidin-3-yl)-6-oxo-5,6-dihydro-4H-thieno[2,3-c]pyrrol-2-yl)methyl)-3-(3-hydroxy-4-methylphenyl)urea]: the cytotoxicity at 1 µM was in the range of 25 to 50%. Still for that read-out and setting: the same measure for `O=C1CCC(N2Cc3c(CNC(=O)C(=O)c4ccc(C(F)(F)F)cc4)cccc3C2=O)C(=O)N1` (stereo not drawn) [Compound I-75, N-((2-(2,6-dioxopiperidin-3-yl)-1-oxoisoindolin-4-yl)methyl)-2-oxo-2-(4-(trifluoromethyl)phenyl)acetamide]: 25 to 50%; for `COc1cccc(C(=O)C(=O)NCc2cccc3c2CN(C2CCC(=O)NC2=O)C3=O)c1` (stereo not drawn) [Compound I-94, 2-(3-methoxyphenyl)-N-((2-(2,6-dioxopiperidin-3-yl)-1-oxoisoindolin-4-yl)methyl)-2-oxoacetamide]: under 25%. On the same count and under the same terms, the same measure for `O=C1CCC(N2Cc3c(csc3CNC(=O)NCCCOc3ccccc3)C2=O)C(=O)N1` (stereo not drawn) [II-145, 1-((5-(2,6-dioxopiperidin-3-yl)-4-oxo-5,6-dihydro-4H-thieno[3,4-c]pyrrol-1-yl)methyl)-3-(3-phenoxypropyl)urea]: 50 to 80%; for `Cc1cc(C(=O)C(=O)NCc2cccc3c2CN(C2CCC(=O)NC2=O)C3=O)ccc1C(C)(C)C` (stereo not drawn) [Compound I-54, 2-(3-methyl-4-(tert-butyl)phenyl)-N-((2-(2,6-dioxopiperidin-3-yl)-1-oxoisoindolin-4-yl)methyl)-2-oxoacetamide]: over 80%; for `CC(C)c1cc(NC(=O)NCc2cc3c(s2)C(=O)N(C2CCC(=O)NC2=O)C3)cc(N(C)C)c1` (stereo not drawn) [II-60, 1-(3-(dimethylamino)-5-isopropylphenyl)-3-((5-(2,6-dioxopiperidin-3-yl)-6-oxo-5,6-dihydro-4H-thieno[2,3-c]pyrrol-2-yl)methyl)urea]: over 80%. The same measure, in the same setting: the result for `CC(CCc1ccc(C(C)(C)C)cc1)C(=O)NCc1scc2c1CN(C1CCC(=O)NC1=O)C2=O` (stereo not drawn) [II-86, 4-(4-(tert-butyl)phenyl)-N-((5-(2,6-dioxopiperidin-3-yl)-4-oxo-5,6-dihydro-4H-thieno[3,4-c]pyrrol-1-yl)methyl)-2-methylbutanamide] reads under 25%.
